Assay results published in patent publication US8512678B2, “Non-invasive, in vivo fluorescent imaging of the nervous system in whole living animal” (priority 2005, dated 2013).
Entries after “also recorded” stand apart in the source; their conditions may differ.

Tests used:
[1] = system: GFP expression in the astrocytes; experiment: Confocal imaging of endogenous GFP with GFAP immunostaining in brain cryosections; format: in vivo, mouse; details: for GFP expression in the astrocytes: Tg mice
Procedure: (§1) In order to determine whether the photons were being emitted from the astrocytes in the CNS, the brains were harvested and fixed with 4% paraformaldehyde in 0.1 M phosphate buffer saline (PBS, pH 7.4) for 4 hr at 4° C. The brains were then washed three times in PBS with an incubation time of 15 min each time before soaking in 30% sucrose overnight at 4° C. All brains were embedded in freezing medium after immersing the tissues in liquid nitrogen prior to mounting and sectioning them using a cryostat (Leica Microsystems, Nussloch GmbH; CM-3050S). Coronal cryosections, 20 μm in thickness of the substantia nigra (bregma −3.16 mm, interaural 0.64 mm) were used for immunohistochemistry according to the Atlas of Mouse brain (Franklin and Paxinos, 2001). Each of the control and treated group contained 4 animals […].
For tyrosine hydroxylase (TH) and GFAP immunostaining, a rabbit anti-TH polyclonal antibody (Chemicon International, Temecula, Calif., USA; Ab-152) and a rabbit anti-GFAP polyclonal antibody (DakoCytomation, Denmark; Z-0334) were used. The cryosections were washed for 5 min in 0.15 M 1×PBS followed by incubating for 4 hr at 4° C. in blocking solution of PBS containing 0.1% (v/v) Triton X-100 and 10% nonimmune goat serum. The cryosections were then washed in 0.15 M 1×PBS three times, each for 15 min. The brain sections were then incubated overnight with anti-TH antibody (1:200) and anti-GFAP antibody (1:200), in 1×PBS containing 0.01% (v/v) Triton X-100 and 1% nonimmune goat serum at 4° C. After a three times 15 min rinse in 1×PBS, the sections were incubated with Texas-red conjugated goat polyclonal to rabbit secondary IgG antibody (Abcam Ltd, Cambridge, U.K.; Ab-7088) at 1:100 dilution in PBS containing 0.01% (v/v) Triton X-100 and 1% nonimmune goat serum for 2 hr at room temperature. After another three times 15 min rinse in 1×PBS, the sections were coverslipped in 10 μl of the fluorescence medium and viewed under the confocal laser scanning microscope (Olympus Optical Co. Ltd. Tokyo, Japan; IX-71).

[2] = system: GFAP-GFP transgene; experiment: Non-invasive in vivo neural imaging of GFAP-GFP transgenic neonatal mice (relative fluorescence, IVIS); design: species or system mouse; details: for increase in relative fluorescence (RF), mean, compared to 0 hr: 6 hr after treatment; for increase in relative fluorescence (RF), mean, over the control group: 6 hr post-treatment, P<0.01
Source text: The generation and genotyping of the transgenic GFAP-GFP mice were done as previously described (Zhuo et al., 1997). Neonatal mice of FVB/N background at 4 days of age, weighing 2.0 g-2.5 g were used in the present study. Animal husbandry was provided by National University of Singapore animal holding unit facility. The experimental protocol covering the current study was approved by the Institutional Animal Care and Use Committee.
The neonatal mice received a single subcutaneous (sc) injection of 2′-CH3-MPTP (12 mg/kg in saline) at 0 hour. Saline was used as a vehicle for the control group. Neural imaging was subsequently performed at 2 hr, 4 hr, 6 hr and 8 hr post-treatment.
Non-invasive imaging was conducted using an IVIS Imaging System 100 Series (Xenogen Corp., Alameda, Calif., U.S.A.). A 2′-CH3-MPTP-treated pair comprising of a transgenic and a non-transgenic neonatal mouse was positioned beside one another and held in position without anesthesia by physically restraining the mice on the lower back using tape. […] Subsequently, the pair of neonatal mice were fluorescently imaged with the GFP filter set equipped with the IVIS system. The image acquisition time was ten seconds. The same procedure was applied on the control pair injected with saline as well. Result of the neurotoxic effect of 2′-CH3-MPTP on the mice was expressed as relative fluorescence (RF), a ratio between the total GFP fluorescent signals detected from the region of interest (ROI) in transgenic (Tg) mouse and the tissue autofluorescence signals from the ROI in non-transgenic (nTg) mouse (TgROI/nTgROI). The area of the ROI for both mice is exactly the same and is identical throughout all the ROI used in the study to quantify the radiances. To minimize any variations due to the imaging system, three images were captured for each pair of treated and control mice and the mean value derived used as the quantitative reading for that particular pair. The values of the control (n=5 pairs of mice) and treated groups (n=5 pairs of mice) were expressed as means±SEM and statistical significance was evaluated using Student's two-tailed paired t-test.
The neurotoxin used was 2′-CH3-MPTP.
The neurotoxins used were 2′-CH3-MPTP and Kainic Acid (KA). […] KA was used in dosages 2 mg/kg with one injection. All injections were carried out subcutaneously.

[3] = system: tyrosine hydroxylase (TH) immuno-positive dopaminergic neurons; experiment: TH immunostaining in the substantia nigra compact (SNC); format: in vivo, mouse; details: 6 hr after 12 mg/kg sc, neonatal mice
Procedure: as §1
For tyrosine hydroxylase (TH) and GFAP immunostaining, a rabbit anti-TH polyclonal antibody (Chemicon International, Temecula, Calif., USA; Ab-152) and a rabbit anti-GFAP polyclonal antibody (DakoCytomation, Denmark; Z-0334) were used. […] After another three times 15 min rinse in 1×PBS, the sections were coverslipped in 10 μl of the fluorescence medium and viewed under the confocal laser scanning microscope (Olympus Optical Co. Ltd. Tokyo, Japan; IX-71).

[4] = system: GFAP gene expression; experiment: Real-time RT-PCR of brain RNA, GFAP gene expression; format: in vivo, mouse; details: transgenic mice, 2 hours after treatment, 1×2 mg/kg, p<0.01
Procedure: (§2) […] The brain was removed and then lysed in buffer RA1 and β-mercaptoethanol. Total RNA from the brain was isolated using NucleoSpin® RNA II kit. Total RNA was reverse-transcribed with random hexamers and real-time RT-PCR was performed on the cDNA to quantify gene expression.
(§3) The brain was removed and then lysed in buffer RA1 and β-mercaptoethanol. Total RNA from the brain was isolated using NucleoSpin® RNA II kit. Total RNA was reverse-transcribed with random hexamers and real-time RT-PCR was performed on the cDNA to quantify gene expression. The same procedure is carried out for mice treated with KA (1×2 mg/kg).

[5] = system: GFP gene expression; experiment: Real-time RT-PCR of brain RNA, GFP gene expression; format: in vivo, mouse; details: transgenic mice, 2 hours after treatment, 1×2 mg/kg, p<0.05
Procedure: as §2, §3

Cc1ccccc1C1=CCN(C)CC1 [2′-CH3-MPTP, 1-methyl-4-(2′-methylphenyl)-1,2,3,6-tetrahydropyridine]
expression of the GFAP-GFP transgene in the astrocytes ([1]; SNC sections, 6 hr post-treatment as compared to 0 hr, 12 mg/kg sc): up-regulation | GFP expression in the astrocytes ([1]; ventricle and hippocampus area, 6 hr after one-time 12 mg/kg sc): evidently increased | increase in relative fluorescence (RF), mean, compared to 0 hr ([2]; single dose 12 mg/kg sc, neonatal mice, P<0.0001): 17% | increase in relative fluorescence (RF), mean, over the control group ([2]; single dose 12 mg/kg sc, neonatal mice, brain ROI): 22% | difference in relative fluorescence (RF) between treated and control group ([2]; single dose 12 mg/kg sc, at 4 hr, 6 hr and 8 hr after treatment): significant difference | TH immuno-positive fibers and cell bodies / TH-like immunoreactivity [3]: No visual reduction; also recorded: No obvious changes

C=C(C)[C@H]1CN[C@H](C(=O)O)[C@H]1CC(=O)O [KA, Kainic acid]
enhancement in gene expression of GFAP [4]: about 21% | enhancement in gene expression of GFP [5]: ~22% | GFP expression in the astrocytes ([1]; various areas of the hippocampus (CA1, CA2, CA3), 6 hr after one-time 2 mg/kg sc): evidently increased | increase in relative fluorescence (RF), mean, compared to 0 hr ([2]; single dose 2 mg/kg sc, P<0.05): 22% | increase in relative fluorescence (RF), mean, over the control group ([2]; single dose 2 mg/kg sc, neonatal mice): 25% | difference in relative fluorescence (RF) between treated and control group ([2]; single dose 2 mg/kg sc, at 4 hr and 6 hr after treatment): significant difference

CN1CC=C(c2ccccc2)CC1 [MPTP, 1-methyl-4-phenyl-1,2,3,6-tetrahydropyridine]
difference in RF between the different time intervals ([2]; single dose 12 mg/kg sc, neonatal transgenic mice (FIG. 9)): no significant difference
